# Source: patent US12629364B2, “Methods of treating cancers overexpressing CARM1 with EZH2 inhibitors and platinum-based antineoplastic drugs” (The Wistar Institute of Anatomy and Biology, priority 2016, dated 2026)
# What was measured:
# [1] = test system: parental and CARM1 knockout A1847 cells, OVCAR10 cells; experiment: Apoptosis markers (Annexin V, cleaved caspase 3, cleaved PARP); assay type: cell-based, Human; settings: 10 μM; 7 days; CARM1-dependent manner
# Description: FIG. 37 illustrates control parental and CARM1 knockout A1847 cells were treated with 10 μM GSK126 or vehicle for 7 days. Percentage of Annexin V positive apoptotic cells was quantified. *p<0.001 and #p>0.05.
# FIG. 38 illustrates levels of cleaved caspase 3 and cleaved PARP in control parental and CARM1 knockout A1847 cells treated with 10 μM GSK126 for 7 days. Expression of β-actin was used as a loading control.
# FIG. 39A illustrates the expression of apoptosis markers cleaved in CARM1 high OVCAR10 cells as a result of treatment with GSK126. CARM1 high OVCAR10 cells were treated with 10 μM GSK 126 or vehicle control for 7 days. The expression of apoptosis markers cleaved caspase 3 and cleaved PARP were determined by immunoblot. Expression of β-actin was used as a loading control.
# Phosphatidylserine externalization was detected using an Annexin V staining kit (Millipore) following the manufacturer's instructions. Annexin V-positive cells were detected using the Guava System and analyzed with the Guava Nexin software Module (Millipore).
# [2] = test system: tumors formed by CARM1 knockout A1847 cells; experiment: Subcutaneous xenograft, CARM1 knockout A1847 cells; assay type: in vivo, NSG mice; settings: 50 mg/kg daily
# Description: FIGS. 73 to 75 illustrate that EZH2 inhibition suppressed the growth of CARM1-expressing ovarian tumors in vivo. FIG. 73 illustrates images of tumors dissected from control or GSK126 treated mice. CARM1-high A1847 cells were injected subcutaneously into immunocompromised NSG mice (n=5/group). Tumors were allowed to establish for one week before the mice were randomized into two different treatment groups. Mice were treated with vehicle control or GSK126 (50 mg/kg daily) for an additional three weeks. At the end of treatment, the mice were euthanized. Bar=1 cm. FIG. 74 illustrates a difference in tumor size measured as a surrogate for tumor burden from the control and GSK 126 treated mice at the indicated time point. FIG. 75 illustrates a difference in tumor weight measured as a surrogate for tumor burden from control and GSK 126-treated mice. The mice were injected with CARM1 knockout A1847 cells.
# The protocols were approved by the Institutional Animal Care and Use Committee (IACUC). 5×10^6 control A1847 or A1847 CARM1 knockout cells were unilaterally injected subcutaneously into 6-8-week old female immunocompromised NSG mice (n=5 per group). […] Tumor size was measured every 3 days for 3 weeks. At end of the experiments, tumors were surgically dissected and tumor burden was calculated based on tumor weight.
smiles,measurement,setting,value
"CC[C@H](C)n1cc(C)c2c(C(=O)NCc3c(C)cc(C)[nH]c3=O)cc(-c3ccc(N4CCNCC4)nc3)cc21 [GSK126, (S)-1-(sec-butyl)-N-((4,6-dimethyl-2-oxo-1,2-dihydropyridin-3-yl)methyl)-3-methyl-6-(6-(piperazin-1-yl)pyridin-3-yl)-1H-indole-4-carboxamide]",markers of apoptosis,[1],markers of apoptosis were induced
same,tumor growth,[2],failed to inhibit the growth
